In PubChem BioAssay (NCI):
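1) Cells in 96-well plates. 2) Compound, 48 h, 5 concentrations. 3) Linear interpolation between surrounding doses. 4) Unreached endpoint = highest concentration. The concentration for full growth arrest is given as TGI.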

Legend:
Experiment in all cases: NCI-60 cell line screen, 48 h
[1] = tested on: 786-0 renal
[2] = tested on: A549 NSCLC
[3] = tested on: ACHN renal
[4] = tested on: CAKI-1 renal
[5] = tested on: CCRF-CEM leukemia
[6] = tested on: COLO 205 colon
[7] = tested on: DLD-1 colon
[8] = tested on: DMS 114 small cell lung
[9] = tested on: DMS 273 small cell lung
[10] = tested on: EKVX NSCLC
[11] = tested on: HCC-2998 colon
[12] = tested on: HCT-116 colon
[13] = tested on: HCT-15 colon
[14] = tested on: HL-60(TB) leukemia
[15] = tested on: HOP-62 NSCLC
[16] = tested on: HT29 colon
[17] = tested on: IGROV1 ovarian
[18] = tested on: K-562 leukemia
[19] = tested on: KM20L2 colon
[20] = tested on: LOX IMVI melanoma
[21] = tested on: LXFL 529 NSCLC
[22] = tested on: M14 melanoma
[23] = tested on: M19-MEL melanoma
[24] = tested on: MOLT-4 leukemia
[25] = tested on: NCI-H23 lung
[26] = tested on: NCI-H460 lung
[27] = tested on: OVCAR-3 ovarian
[28] = tested on: OVCAR-4 ovarian
[29] = tested on: OVCAR-8 ovarian
[30] = tested on: RXF-631 renal
[31] = tested on: SF-268 CNS
[32] = tested on: SF-295 CNS
[33] = tested on: SF-539 CNS
[34] = tested on: SK-MEL-28 melanoma
[35] = tested on: SK-MEL-5 melanoma
[36] = tested on: SK-OV-3 ovarian
[37] = tested on: SN12C renal
[38] = tested on: SNB-19 CNS
[39] = tested on: SNB-75 CNS
[40] = tested on: SNB-78 CNS
[41] = tested on: SW-620 colon
[42] = tested on: TK-10 renal
[43] = tested on: U251 CNS
[44] = tested on: UACC-62 melanoma
[45] = tested on: UO-31 renal
[46] = tested on: XF 498 CNS
[47] = tested on: A498 renal
[48] = tested on: HOP-18 NSCLC
[49] = tested on: HOP-92 NSCLC
[50] = tested on: KM12 colon
[51] = tested on: MALME-3M melanoma
[52] = tested on: NCI-H522 lung
[53] = tested on: OVCAR-5 ovarian
[54] = tested on: RPMI-8226 leukemia
[55] = tested on: RXF 393 renal
[56] = tested on: SK-MEL-2 melanoma
[57] = tested on: UACC-257 melanoma
[58] = tested on: SR leukemia

CCCCN1C(=O)C2c3[nH]c4ccccc4c3C3CCCCC3C2C1=O (mixture of isomers)
TGI [1]: 20.2 µM | TGI [2]: 45 µM | TGI [3]: 27.7 µM | TGI [4]: 20.4 µM | TGI [5]: 37.5 µM | TGI [6]: > 100 µM | TGI [7]: > 100 µM | TGI [8]: 44.6 µM | TGI [9]: 23.5 µM | TGI [10]: 66.8 µM | TGI [11]: 62.4 µM | TGI [12]: 23.6 µM | TGI [13]: > 100 µM | TGI [14]: 29.1 µM | TGI [15]: 19.4 µM | TGI [16]: > 100 µM | TGI [17]: 75.9 µM | TGI [18]: 28.3 µM | TGI [19]: > 100 µM | TGI [20]: 24.1 µM | TGI [21]: 29.1 µM | TGI [22]: 42.8 µM | TGI [23]: > 100 µM | TGI [24]: 19.4 µM | TGI [25]: 78.1 µM | TGI [26]: 31.2 µM | TGI [27]: 28.9 µM | TGI [28]: 8.22 µM | TGI [29]: 58.8 µM | TGI [30]: 36.4 µM | TGI [31]: 48.4 µM | TGI [32]: 23.7 µM | TGI [33]: 28.6 µM | TGI [34]: > 100 µM | TGI [35]: 90.3 µM | TGI [36]: 47.7 µM | TGI [37]: > 100 µM | TGI [38]: 64.2 µM | TGI [39]: 21.9 µM | TGI [40]: 50 µM | TGI [41]: > 100 µM | TGI [42]: 33.9 µM | TGI [43]: 36.3 µM | TGI [44]: 79.3 µM | TGI [45]: 47.5 µM | TGI [46]: 27.8 µM

COC(=O)CCC(=O)Nc1cccc(C(F)(F)F)c1
TGI [1]: > 100 µM | TGI [47]: > 100 µM | TGI [2]: > 100 µM | TGI [3]: > 100 µM | TGI [4]: > 100 µM | TGI [5]: > 100 µM | TGI [6]: > 100 µM | TGI [7]: > 100 µM | TGI [8]: > 100 µM | TGI [9]: > 100 µM | TGI [10]: > 100 µM | TGI [11]: > 100 µM | TGI [12]: > 100 µM | TGI [13]: > 100 µM | TGI [14]: > 100 µM | TGI [48]: > 100 µM | TGI [15]: > 100 µM | TGI [49]: > 100 µM | TGI [16]: > 100 µM | TGI [17]: > 100 µM | TGI [18]: > 100 µM | TGI [50]: > 100 µM | TGI [19]: > 100 µM | TGI [20]: > 100 µM | TGI [21]: > 100 µM | TGI [22]: > 100 µM | TGI [23]: > 100 µM | TGI [51]: > 100 µM | TGI [24]: > 100 µM | TGI [25]: > 100 µM | TGI [26]: > 100 µM | TGI [52]: > 100 µM | TGI [27]: > 100 µM | TGI [28]: > 100 µM | TGI [53]: > 100 µM | TGI [29]: > 100 µM | TGI [54]: > 100 µM | TGI [55]: > 100 µM | TGI [31]: > 100 µM | TGI [32]: > 100 µM | TGI [33]: > 100 µM | TGI [56]: > 100 µM | TGI [34]: > 100 µM | TGI [35]: > 100 µM | TGI [36]: > 100 µM | TGI [37]: > 100 µM | TGI [38]: > 100 µM | TGI [39]: > 100 µM | TGI [40]: > 100 µM | TGI [41]: > 100 µM | TGI [42]: > 100 µM | TGI [43]: > 100 µM | TGI [57]: > 100 µM | TGI [44]: > 100 µM | TGI [45]: > 100 µM | TGI [46]: > 100 µM

CC(C)COC(=O)N1N=NC2C3CC(=O)C(O3)C21 (configuration not stated)
TGI [1]: > 100 µM | TGI [47]: > 100 µM | TGI [2]: > 100 µM | TGI [3]: > 100 µM | TGI [4]: > 100 µM | TGI [5]: > 100 µM | TGI [6]: > 100 µM | TGI [7]: > 100 µM | TGI [8]: > 100 µM | TGI [9]: > 100 µM | TGI [10]: > 100 µM | TGI [11]: > 100 µM | TGI [12]: > 100 µM | TGI [13]: > 100 µM | TGI [48]: > 100 µM | TGI [15]: > 100 µM | TGI [49]: > 100 µM | TGI [16]: > 100 µM | TGI [17]: > 100 µM | TGI [18]: > 100 µM | TGI [50]: > 100 µM | TGI [19]: > 100 µM | TGI [20]: > 100 µM | TGI [21]: > 100 µM | TGI [22]: > 100 µM | TGI [23]: > 100 µM | TGI [51]: > 100 µM | TGI [24]: > 100 µM | TGI [25]: > 100 µM | TGI [26]: > 100 µM | TGI [52]: > 100 µM | TGI [27]: > 100 µM | TGI [28]: > 100 µM | TGI [53]: > 100 µM | TGI [29]: > 100 µM | TGI [54]: > 100 µM | TGI [55]: > 100 µM | TGI [30]: > 100 µM | TGI [31]: > 100 µM | TGI [32]: > 100 µM | TGI [33]: > 100 µM | TGI [56]: > 100 µM | TGI [34]: > 100 µM | TGI [35]: > 100 µM | TGI [36]: > 100 µM | TGI [37]: > 100 µM | TGI [38]: > 100 µM | TGI [39]: > 100 µM | TGI [40]: > 100 µM | TGI [58]: > 100 µM | TGI [41]: > 100 µM | TGI [42]: > 100 µM | TGI [43]: > 100 µM | TGI [57]: > 100 µM | TGI [44]: > 100 µM | TGI [45]: > 100 µM

Cc1cccc(NC(N)=S)c1
TGI [47]: > 100 µM | TGI [3]: > 100 µM | TGI [5]: > 100 µM | TGI [7]: > 100 µM | TGI [8]: > 100 µM | TGI [10]: > 100 µM | TGI [11]: > 100 µM | TGI [12]: > 100 µM | TGI [13]: > 100 µM | TGI [14]: > 100 µM | TGI [15]: > 100 µM | TGI [16]: > 100 µM | TGI [18]: > 100 µM | TGI [50]: > 100 µM | TGI [20]: > 100 µM | TGI [21]: > 100 µM | TGI [22]: > 100 µM | TGI [23]: > 100 µM | TGI [51]: > 100 µM | TGI [24]: > 100 µM | TGI [25]: > 100 µM | TGI [26]: > 100 µM | TGI [52]: > 100 µM | TGI [27]: > 100 µM | TGI [28]: > 100 µM | TGI [53]: > 100 µM | TGI [55]: > 100 µM | TGI [30]: > 100 µM | TGI [31]: > 100 µM | TGI [33]: > 100 µM | TGI [56]: > 100 µM | TGI [34]: > 100 µM | TGI [36]: > 100 µM | TGI [37]: > 100 µM | TGI [38]: > 100 µM | TGI [39]: > 100 µM | TGI [40]: > 100 µM | TGI [58]: > 100 µM | TGI [42]: > 100 µM | TGI [43]: > 100 µM | TGI [57]: > 100 µM | TGI [44]: > 100 µM | TGI [45]: > 100 µM | TGI [46]: > 100 µM
